# Tests used:
# [1] = tested on: recombinant NL4-3 virus (nef section replaced with Renilla luciferase gene) in MT-2 cells; assay: HIV cell culture assay (antiviral activity, luciferase readout); type: cell-based; conditions: Renilla, NL43, MT-2 cells infected for 4-5 days with recombinant NL4-3 Renilla luciferase virus
# Procedure, shortened: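 293T transfection → virus harvest at 2-3 d → titer in MT-2 by luciferase. MT-2 + virus + serial cpd dilutions, 4-5 d. Live-cell luciferase read; EC50 by median effect fit.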
# [2] = Compound cytotoxicity, XTT-based colorimetric assay; type: cell-based; conditions: human; uninfected MT2 cells, day 4, XTT; read-out: CC50
# Procedure, shortened: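 Uninfected MT2 cells were treated with compound under the same protocol as the antiviral assay. Viability was read on day 4 with an XTT colorimetric assay, from which CC50 values were derived.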
SMILES,EC50 [1] [nM],CC50 at 4 days [2] [nM]
"COCCCn1nc(NS(C)(=O)=O)c2c(Cl)ccc(-n3c([C@H](Cc4cc(F)cc(F)c4)NC(=O)Cn4nc(C5CC5)c5c4C[C@@H]4C[C@H]54)nc4nc(C5CCC(F)(F)CC5)cc(CN5C[C@@H](C)O[C@@H](C)C5)c4c3=O)c21 (atropisomer, axis not shown; (P)) [Example 599, N-[(1S)-1-[(3P)-3-[4-chloro-3-methanesulfonamido-1-(3-methoxypropyl)-1H-indazol-7-yl]-7-(4,4-difluorocyclohexyl)-5-{[(2R,6S)-2,6-dimethylmorpholin-4-yl]methyl}-4-oxo-3H,4H-pyrido[2,3-d]pyrimidin-2-yl]-2-(3,5-difluorophenyl)ethyl]-2-[(2S,4S)-9-cyclopropyl-7,8-diazatricyclo[4.3.0.0^2,^4]nona-1(6),8-dien-7-yl]acetamide]",0.007,> 20
"CS(=O)(=O)Nc1nn(CCN2C[C@H]3CC[C@@H](C2)O3)c2c(-n3c([C@H](Cc4cc(F)cc(F)c4)NC(=O)Cn4nc(C5CC5)c5c4C[C@@H]4C[C@H]54)nc4nc(C5CCC(F)(F)CC5)cc(C5CC5)c4c3=O)ccc(Cl)c12 (atropisomer, axis not shown; (P)) [Example 325, N-[(1S)-1-[(3P)-3-(4-chloro-3-methanesulfonamido-1-{2-[(1R,5S)-8-oxa-3-azabicyclo[3.2.1]octan-3-yl]ethyl}-1H-indazol-7-yl)-5-cyclopropyl-7-(4,4-difluorocyclohexyl)-4-oxo-3H,4H-pyrido[2,3-d]pyrimidin-2-yl]-2-(3,5-difluorophenyl)ethyl]-2-[(2S,4S)-9-cyclopropyl-7,8-diazatricyclo[4.3.0.0^2,^4]nona-1(6),8-dien-7-yl]acetamide]",0.009,> 50
"CS(=O)(=O)Nc1nn(CCN2C[C@H](F)C[C@H](F)C2)c2c(-n3c([C@H](Cc4cc(F)cc(F)c4)NC(=O)Cn4nc(C(F)F)c5c4C(F)(F)[C@@H]4C[C@H]54)nc4nc(C5CCC(F)(F)CC5)cc(CF)c4c3=O)ccc(Cl)c12 (atropisomer, axis not shown; (P)) [Example 512, N-[(1S)-1-[(3P)-3-(4-chloro-1-{2-[(3R,5S)-3,5-difluoropiperidin-1-yl]ethyl}-3-methanesulfonamido-1H-indazol-7-yl)-7-(4,4-difluorocyclohexyl)-5-(fluoromethyl)-4-oxo-3H,4H-pyrido[2,3-d]pyrimidin-2-yl]-2-(3,5-difluorophenyl)ethyl]-2-[(2S,4R)-9-(difluoromethyl)-5,5-difluoro-7,8-diazatricyclo[4.3.0.0^2,^4]nona-1(6),8-dien-7-yl]acetamide]",0.006,> 20
"CS(=O)(=O)Nc1nn(CCN2C[C@H](F)C[C@H](F)C2)c2c(-n3c([C@H](Cc4cc(F)cc(F)c4)NC(=O)Cn4nc(C(F)F)c5c4C(F)(F)[C@@H]4C[C@H]54)nc4nc(C5CCC(F)(F)CC5)cc(C5CC5)c4c3=O)ccc(Cl)c12 (atropisomer, axis not shown; (P)) [Example 322, N-[(1S)-1-[(3P)-3-(4-chloro-1-{2-[(3R,5S)-3,5-difluoropiperidin-1-yl]ethyl}-3-methanesulfonamido-1H-indazol-7-yl)-5-cyclopropyl-7-(4,4-difluorocyclohexyl)-4-oxo-3H,4H-pyrido[2,3-d]pyrimidin-2-yl]-2-(3,5-difluorophenyl)ethyl]-2-[(2S,4R)-9-(difluoromethyl)-5,5-difluoro-7,8-diazatricyclo[4.3.0.0^2,^4]nona-1(6),8-dien-7-yl]acetamide]",0.009,> 50
"CCc1cc(C2CCC(F)(F)CC2)nc2nc([C@H](Cc3cc(F)cc(F)c3)NC(=O)Cn3nc(C(F)F)c4c3C(F)(F)[C@@H]3C[C@H]43)n(-c3ccc(Cl)c4c(NS(C)(=O)=O)nn(CCOC)c34)c(=O)c12 (atropisomer, axis not shown; (P)) [Example 632, N-[(1S)-1-[(3P)-3-[4-chloro-3-methanesulfonamido-1-(2-methoxyethyl)-1H-indazol-7-yl]-7-(4,4-difluorocyclohexyl)-5-ethyl-4-oxo-3H,4H-pyrido[2,3-d]pyrimidin-2-yl]-2-(3,5-difluorophenyl)ethyl]-2-[(2S,4R)-9-(difluoromethyl)-5,5-difluoro-7,8-diazatricyclo[4.3.0.0^2,^4]nona-1(6),8-dien-7-yl]acetamide]",0.021,> 50
"Cc1cc(C2CCC(F)(F)CC2)nc2nc([C@H](Cc3cc(F)cc(F)c3)NC(=O)Cn3nc(C(F)F)c4c3C(F)(F)[C@@H]3C[C@H]43)n(-c3ccc(Cl)c4c(NS(C)(=O)=O)nn(CCN5C[C@H](F)C[C@H](F)C5)c34)c(=O)c12 (atropisomer, axis not shown; (P)) [Example 5, N-[(1S)-1-[(3P)-3-(4-chloro-1-{2-[(3R,5S)-3,5-difluoropiperidin-1-yl]ethyl}-3-methanesulfonamido-1H-indazol-7-yl)-7-(4,4-difluorocyclohexyl)-5-methyl-4-oxo-3H,4H-pyrido[2,3-d]pyrimidin-2-yl]-2-(3,5-difluorophenyl)ethyl]-2-[(2S,4R)-9-(difluoromethyl)-5,5-difluoro-7,8-diazatricyclo[4.3.0.0^2,4]nona-1(6),8-dien-7-yl]acetamide]",0.009,> 20000
"Cc1cc(C2CCC(F)(F)CC2)nc2nc([C@H](Cc3cc(F)cc(F)c3)NC(=O)Cn3nc(C(F)F)c4c3C(F)(F)[C@@H]3C[C@H]43)n(-c3ccc(Cl)c4c(NS(C)(=O)=O)nn(CCOC(C)(C)C)c34)c(=O)c12 (atropisomer, axis not shown; (P)) [Example 129, N-[(1S)-1-[(3P)-3-{1-[2-(tert-butoxy)ethyl]-4-chloro-3-methanesulfonamido-1H-indazol-7-yl}-7-(4,4-difluorocyclohexyl)-5-methyl-4-oxo-3H,4H-pyrido[2,3-d]pyrimidin-2-yl]-2-(3,5-difluorophenyl)ethyl]-2-[(2S,4R)-9-(difluoromethyl)-5,5-difluoro-7,8-diazatricyclo[4.3.0.0^2,^4]nona-1(6),8-dien-7-yl]acetamide]",0.024,> 50
"Cc1cc(C2(F)CCC(F)(F)CC2)nc2nc([C@H](Cc3cc(F)cc(F)c3)NC(=O)Cn3nc(C(F)F)c4c3C(F)(F)[C@@H]3C[C@H]43)n(-c3ccc(Cl)c4c(NS(C)(=O)=O)nn(C[C@@H](C)N5C[C@@H](C)O[C@@H](C)C5)c34)c(=O)c12 (atropisomer, axis not shown; (P)) [Example 720, N-[(1S)-1-[(3P)-3-{4-chloro-1-[(2R)-2-[(2R,6S)-2,6-dimethylmorpholin-4-yl]propyl]-3-methanesulfonamido-1H-indazol-7-yl}-5-methyl-4-oxo-7-(1,4,4-trifluorocyclohexyl)-3H,4H-pyrido[2,3-d]pyrimidin-2-yl]-2-(3,5-difluorophenyl)ethyl]-2-[(2S,4R)-9-(difluoromethyl)-5,5-difluoro-7,8-diazatricyclo[4.3.0.0^2,^4]nona-1(6),8-dien-7-yl]acetamide]",0.007,> 20
"CNCc1cc(C2CCC(F)(F)CC2)nc2nc([C@H](Cc3cc(F)cc(F)c3)NC(=O)Cn3nc(C(F)F)c4c3C(F)(F)[C@@H]3C[C@H]43)n(-c3ccc(Cl)c4c(NS(C)(=O)=O)nn(CCCOC)c34)c(=O)c12 (atropisomer, axis not shown; (P)) [Example 472, N-[(1S)-1-[(3P)-3-[4-chloro-3-methanesulfonamido-1-(3-methoxypropyl)-1H-indazol-7-yl]-7-(4,4-difluorocyclohexyl)-5-[(methylamino)methyl]-4-oxo-3H,4H-pyrido[2,3-d]pyrimidin-2-yl]-2-(3,5-difluorophenyl)ethyl]-2-[(2S,4R)-9-(difluoromethyl)-5,5-difluoro-7,8-diazatricyclo[4.3.0.0^2,^4]nona-1(6),8-dien-7-yl]acetamide]",0.087,> 20
"CS(=O)(=O)Nc1nn(CCN2C[C@@H](F)[C@@H](F)C2)c2c(-n3c([C@H](Cc4cc(F)cc(F)c4)NC(=O)Cn4nc(C(F)F)c5c4C(F)(F)[C@@H]4C[C@H]54)nc4nc(C5CCC(F)(F)CC5)cc(C(F)F)c4c3=O)ccc(Cl)c12 (atropisomer, axis not shown; (P)) [Example 259, N-[(1S)-1-[(3P)-3-(4-chloro-1-{2-[(3R,4S)-3,4-difluoropyrrolidin-1-yl]ethyl}-3-methanesulfonamido-1H-indazol-7-yl)-7-(4,4-difluorocyclohexyl)-5-(difluoromethyl)-4-oxo-3H,4H-pyrido[2,3-d]pyrimidin-2-yl]-2-(3,5-difluorophenyl)ethyl]-2-[(2S,4R)-9-(difluoromethyl)-5,5-difluoro-7,8-diazatricyclo[4.3.0.0^2,^4]nona-1(6),8-dien-7-yl]acetamide]",0.025,> 50
"Cc1cc(C2(C)CCC(F)(F)CC2)nc2nc([C@H](Cc3cc(F)cc(F)c3)NC(=O)Cn3nc(C(F)F)c4c3C(F)(F)[C@@H]3C[C@H]43)n(-c3ccc(Cl)c4c(NS(C)(=O)=O)nn(CCN5CC(C)(C)OC(C)(C)C5)c34)c(=O)c12 (atropisomer, axis not shown; (P)) [Example 507, N-[(1S)-1-[(3P)-3-{4-chloro-3-methanesulfonamido-1-[2-(2,2,6,6-tetramethylmorpholin-4-yl)ethyl]-1H-indazol-7-yl}-7-(4,4-difluoro-1-methylcyclohexyl)-5-methyl-4-oxo-3H,4H-pyrido[2,3-d]pyrimidin-2-yl]-2-(3,5-difluorophenyl)ethyl]-2-[(2S,4R)-9-(difluoromethyl)-5,5-difluoro-7,8-diazatricyclo[4.3.0.0^2,^4]nona-1(6),8-dien-7-yl]acetamide]",0.021,> 20
